# Assay results published in patent US8304446B2, “Compounds” (Glaxo Group Limited, priority 2009, dated 2012).
# Where a name gives a salt, the structure may show the parent alone.
# Tested on: CD4+ CCR4+ T cells
# Test: Chemokine stimulated increases in cellular F-actin content
# Type: cell-based
# Settings: Homo sapiens, T-cell, 0.5 h; PBMC from normal volunteers; antagonist 30 min at 37° C. before agonist for 15 sec; F-actin content by flow cytometry; read-out: pA2 (converted)
# Protocol: Chemokine Stimulated Increases in Cellular F-Actin Content
# Blood was taken from normal volunteers who had taken no medication within the previous ten days and mixed with 1/9 of the volume of 3.8% tri-sodium citrate solution. Chemokine-induced increases in the F-actin content of CD4+ CCR4+ T cells were measured by a modification of the method of Pilette et al. (Eur. Respir. J; 23: 876-884, 2004). Peripheral blood mononuclear cells (PBMC) were isolated by dextran sedimentation followed by Percoll density gradient centrifugation. The PBMCs were incubated with FITC-conjugated anti-human CD4 and PE-conjugated anti-CCR4 antibodies or appropriate isotype controls for 15 min. The cell suspensions were then centrifuged at 400 g for 10 min and the pellets resuspended in assay buffer (phenol red-free RPMI 1640 medium containing 10 mM HEPES and 0.1% bovine serum albumin) at 10^7/mL. The resulting cell suspension was incubated with antagonist or vehicle (0.1% DMSO) for 30 min at 37° C. before stimulation with the agonist for 15 sec. The assay was terminated by addition of 3% formaldehyde. The fixed cells were washed twice with PBS (centrifuging at 1000 g for 5 min to recover the cells) and incubated at room temperature with Alexa fluor-647 phalloidin (0.075 U/mL) in the presence of lyso-phosphatidylcholine (93.75 μg/ml) for 20 min to stain F-actin. The cells were washed once more with PBS and the relative F-actin content of the cells was measured flow cytometrically. The mean fluorescence intensity of 1000 CD4^+ CCR4^+ cells per sample was determined and expressed as a fraction of the mean intensity of the CD4^+ CCR4^− cells in that sample.
row,SMILES,Kb [µM]
1,"COc1cccc2c1c(NS(=O)(=O)c1ccc(Cl)s1)nn2Cc1cccc(CNS(C)(=O)=O)c1 [Example 58, 5-Chloro-N-{4-(methyloxy)-1-[(3-{[(methylsulfonyl)amino]methyl}phenyl)methyl]-1H-indazol-3-yl}-2-thiophenesulfonamide]",≤ 0.126
2,"COc1cccc2c1c(NS(=O)(=O)c1ccc(Cl)s1)nn2Cc1ccc(S(N)(=O)=O)cc1 [Example 62, N-[1-{[4-(Aminosulfonyl)phenyl]methyl}-4-(methyloxy)-1H-indazol-3-yl]-5-chloro-2-thiophenesulfonamide]",≤ 0.126
3,"COc1cccc2c1c(NS(=O)(=O)c1ccc(Cl)s1)nn2Cc1cccc(CNC(=O)[C@@H]2CCN2)c1 [Example 159, (2S)—N-[(3-{[3-{[(5-Chloro-2-thienyl)sulfonyl]amino}-4-(methyloxy)-1H-indazol-1-yl]methyl}phenyl)methyl]-2-azetidinecarboxamide trifluoroacetate]",≤ 0.126
4,"COc1cccc2c1c(NS(=O)(=O)c1ccc(Cl)s1)nn2Cc1cccc(CNC(=O)C2(N)CCC2)c1 [Example 83, 1-Amino-N-[(3-{[3-{[(5-chloro-2-thienyl)sulfonyl]amino}-4-(methyloxy)-1H-indazol-1-yl]methyl}phenyl)methyl]cyclobutanecarboxamide trifluoroacetate]",≤ 0.126
5,"COc1cccc2c1c(NS(=O)(=O)c1ccc(Cl)s1)nn2Cc1cccc(CNC(=O)C2COCCN2C)c1 (stereo not drawn) [Example 96, N-[(3-{[3-{[(5-Chloro-2-thienyl)sulfonyl]amino}-4-(methyloxy)-1H-indazol-1-yl]methyl}phenyl)methyl]-4-methyl-3-morpholinecarboxamide]",≤ 0.126
6,"COc1cccc2c1c(NS(=O)(=O)c1ccc(Cl)s1)nn2Cc1cccc(CNC(=O)CC(C)N)c1 (stereo not drawn) [Example 25, 3-Amino-N-[(3-{[3-{[(5-chloro-2-thienyl)sulfonyl]amino}-4-(methyloxy)-1H-indazol-1-yl]methyl}phenyl)methyl]butanamide trifluoroacetate]",≤ 0.126
7,"COc1cccc2c1c(NS(=O)(=O)c1ccc(Cl)s1)nn2Cc1cccc(CNC(=O)NC(C)(C)C)c1 [Example 60, 5-Chloro-N-[1-({3-[({[(1,1-dimethylethyl)amino]carbonyl}amino)methyl]phenyl}methyl)-4-(methyloxy)-1H-indazol-3-yl]-2-thiophenesulfonamide]",≤ 0.126
8,"COc1cccc2c1c(NS(=O)(=O)c1ccc(Cl)s1)nn2Cc1cccc(CNC(=O)c2ccoc2)c1 [Example 41, N-[(3-{[3-{[(5-Chloro-2-thienyl)sulfonyl]amino}-4-(methyloxy)-1H-indazol-1-yl]methyl}phenyl)methyl]-3-furancarboxamide]",≤ 0.126
9,"COc1cccc2c1c(NS(=O)(=O)c1ccc(C)s1)nn2Cc1cccc(C(N)=O)c1 [Example 66, 3-[(4-(Methyloxy)-3-{[(5-methyl-2-thienyl)sulfonyl]amino}-1H-indazol-1-yl)methyl]benzamide]",≤ 0.126
10,"COc1cccc2c1c(NS(=O)(=O)c1ccc(Cl)s1)nn2Cc1cccc(CNC(=O)[C@@H](N)CCC(N)=O)c1 [Example 79, N^1-[(3-{[3-{[(5-Chloro-2-thienyl)sulfonyl]amino}-4-(methyloxy)-1H-indazol-1-yl]methyl}phenyl)methyl]-L-glutamamide formate salt]",≤ 0.126
11,"COc1cccc2c1c(NS(=O)(=O)c1ccc(Cl)s1)nn2Cc1cccc(CNC(=O)[C@H](N)CC(C)C)c1 [Example 45, N^1-[(3-{[3-{[(5-Chloro-2-thienyl)sulfonyl]amino}-4-(methyloxy)-1H-indazol-1-yl]methyl}phenyl)methyl]-D-leucinamide]",≤ 0.126
12,"COc1cccc2c1c(NS(=O)(=O)c1ccc(Cl)s1)nn2Cc1cccc(CNC(=O)C(C)(C)N(C)C)c1 [Example 34, N^1-[(3-{[3-{[(5-Chloro-2-thienyl)sulfonyl]amino}-4-(methyloxy)-1H-indazol-1-yl]methyl}phenyl)methyl]-N^2,N^2,2-trimethylalaninamide trifluoroacetate]",≤ 0.126
13,"COc1cccc2c1c(NS(=O)(=O)c1ccc(Cl)s1)nn2Cc1cccc(CNC(=O)[C@@H](N)CCCCN)c1 [Example 49, N^1-[(3-{[3-{[(5-Chloro-2-thienyl)sulfonyl]amino}-4-(methyloxy)-1H-indazol-1-yl]methyl}phenyl)methyl]-L-lysinamide]",≤ 0.126
14,"COc1cccc2c1c(NS(=O)(=O)c1ccc(Cl)s1)nn2Cc1cccc(CNC(=O)[C@@H](C)N)c1 [Example 19, N^1-[(3-{[3-{[(5-chloro-2-thienyl)sulfonyl]amino}-4-(methyloxy)-1H-indazol-1-yl]methyl}phenyl)methyl]-D-alaninamide trifluoroacetate]",≤ 0.126
15,"NC(=O)c1cccc(Cn2nc(NS(=O)(=O)c3ccc(Cl)s3)c3c(O)ccc(F)c32)c1 [Example 69, 3-[(3-{[(5-Chloro-2-thienyl)sulfonyl]amino}-7-fluoro-4-hydroxy-1H-indazol-1-yl)methyl]benzamide]",≤ 0.126
16,"CCN(CC)C(=O)c1ccc(Cn2nc(NS(=O)(=O)c3ccc(Cl)s3)c3c(OC)cccc32)cc1 [Example 163, 4-{[3-{[(5-Chloro-2-thienyl)sulfonyl]amino}-4-(methyloxy)-1H-indazol-1-yl]methyl}-N,N-diethylbenzamide]",> 1
17,"COc1cccc2c1c(NS(=O)(=O)c1ccc(Cl)s1)nn2Cc1cccc(CNC(=O)C(C)(C)CN)c1 [Example 11, 3-Amino-N-[(3-{[3-{[(5-chloro-2-thienyl)sulfonyl]amino}-4-(methyloxy)-1H-indazol-1-yl]methyl}phenyl)methyl]-2,2-dimethylpropanamide hydrochloride]",≤ 0.126
18,"CNCC(=O)NCc1cccc(Cn2nc(NS(=O)(=O)c3ccc(Cl)s3)c3c(O)cccc32)c1 [Example 112, N^1-({3-[(3-{[(5-chloro-2-thienyl)sulfonyl]amino}-4-hydroxy-1H-indazol-1-yl)methyl]phenyl}methyl)-N^2-methylglycinamide formate salt]",≤ 0.126
19,"COc1cccc2c1c(NS(=O)(=O)c1ccc(Cl)s1)nn2Cc1cccc(CNC(=O)CO)c1 [Example 32, N-[(3-{[3-{[(5-Chloro-2-thienyl)sulfonyl]amino}-4-(methyloxy)-1H-indazol-1-yl]methyl}phenyl)methyl]-2-hydroxyacetamide]",≤ 0.126
20,"COc1cccc2c1c(NS(=O)(=O)c1ccc(Cl)s1)nn2Cc1cccc(CNC=O)c1 [Example 5, 5-Chloro-N-[1-({3-[(formylamino)methyl]phenyl}methyl)-4-(methyloxy)-1H-indazol-3-yl]-2-thiophenesulfonamide]",≤ 0.126
21,"COc1cccc2c1c(NS(=O)(=O)c1ccc(Cl)s1)nn2Cc1cccc(CNC(=O)CN)c1 [Example 20, N^1-[(3-{[3-{[(5-chloro-2-thienyl)sulfonyl]amino}-4-(methyloxy)-1H-indazol-1-yl]methyl}phenyl)methyl]glycinamide trifluoroacetate]",≤ 0.126
22,"COc1cccc2c1c(NS(=O)(=O)c1ccc(Cl)s1)nn2Cc1cccc(CNC(=O)C2(C)CCCCN2)c1 (stereo not drawn) [Example 14, N-[(3-{[3-{[(5-chloro-2-thienyl)sulfonyl]amino}-4-(methyloxy)-1H-indazol-1-yl]methyl}phenyl)methyl]-2-methyl-2-piperidinecarboxamide]",≤ 0.126
23,"CC[C@H](C)[C@@H](N)C(=O)NCc1cccc(Cn2nc(NS(=O)(=O)c3ccc(Cl)s3)c3c(OC)cccc32)c1 [Example 46, N^1-[(3-{[3-{[(5-Chloro-2-thienyl)sulfonyl]amino}-4-(methyloxy)-1H-indazol-1-yl]methyl}phenyl)methyl]-D-alloisoleucinamide]",≤ 0.126
24,"COc1cccc2c1c(NS(=O)(=O)c1ccc(Cl)s1)nn2Cc1cccc(OCCN(C)C)c1 [Example 74, 5-Chloro-N-[1-[(3-{[2-(dimethylamino)ethyl]oxy}phenyl)methyl]-4-(methyloxy)-1H-indazol-3-yl]-2-thiophenesulfonamide]",≤ 0.126
25,"COc1cccc2c1c(NS(=O)(=O)c1ccc(Cl)s1)nn2Cc1cccc(CNC(=O)CN(C)C)c1 [Example 86, N^1-[(3-{[3-{[(5-Chloro-2-thienyl)sulfonyl]amino}-4-(methyloxy)-1H-indazol-1-yl]methyl}phenyl)methyl]-N^2,N^2-dimethylglycinamide trifluoroacetate]",≤ 0.126
26,"CCNC(=O)NCc1cccc(Cn2nc(NS(=O)(=O)c3ccc(Cl)s3)c3c(OC)cccc32)c1 [Example 113, 5-Chloro-N-[1-{[3-({[(ethylamino)carbonyl]amino}methyl)phenyl]methyl}-4-(methyloxy)-1H-indazol-3-yl]-2-thiophenesulfonamide]",≤ 0.126
27,"COc1ccc(F)c2c1c(NS(=O)(=O)c1ccc(Cl)s1)nn2Cc1cccc(C(N)=O)c1 [Example 68, 3-{[3-{[(5-Chloro-2-thienyl)sulfonyl]amino}-7-fluoro-4-(methyloxy)-1H-indazol-1-yl]methyl}benzamide]",≤ 0.126
